Source: BindingDB's records for doi:10.1021/jm00122a003 (Tanabe Seiyaku, 1989)

Target: Angiotensin-converting enzyme (Sus scrofa)
Assay: Inhibitory activity on Angiotensin I converting enzyme (ACE) obtained from pig renal cortex and hippuryl-histidyl-leucine as substrate

| SMILES | IC50 [nM] |
| --- | --- |
| CCCCCCCC[C@H](N[C@@H](CC)C(=O)N1C(=O)N(Cc2ccccc2)C[C@H]1C(=O)O)C(=O)O | 2.1 |
| C[C@H](N)C(=O)N1C(=O)N(Cc2ccccc2)C[C@H]1C(=O)O | 1500 |

Target: Angiotensin-converting enzyme (Sus scrofa)
Assay: as above
Remark: another data set of the same source

| IC50 [nM] | SMILES |
| --- | --- |
| 2.3 | CC[C@H](N[C@@H](CCc1ccccc1)C(=O)O)C(=O)N1C(=O)N(Cc2ccccc2)C[C@H]1C(=O)O |
| 1.7 | C[C@H](N[C@@H](CCc1ccccc1)C(=O)O)C(=O)N1C(=O)N(Cc2ccccc2)C[C@H]1C(=O)O |
| 6.7 | CCCCN1C[C@@H](C(=O)O)N(C(=O)[C@H](C)N[C@@H](CCc2ccccc2)C(=O)O)C1=O |
| 7900 | CCOC(=O)[C@H](CCc1ccccc1)N[C@@H](C)C(=O)N1C(=O)N(Cc2ccccc2)C[C@H]1C(=O)O |
| 2400 | C[C@@H](N[C@@H](CCc1ccccc1)C(=O)O)C(=O)N1C(=O)N(Cc2ccccc2)C[C@H]1C(=O)O |
| 11 | C[C@H](N[C@@H](Cc1ccccc1)C(=O)O)C(=O)N1C(=O)N(Cc2ccccc2)C[C@H]1C(=O)O |

Continued, compound first:

| SMILES | IC50 [nM] |
| --- | --- |
| CCCCCCCC[C@H](N[C@@H](C)C(=O)N1C(=O)N(C)C[C@H]1C(=O)O)C(=O)OCC | 5100 |
| CC(C)CC[C@H](N[C@@H](C)C(=O)N1C(=O)N(Cc2ccccc2)C[C@H]1C(=O)O)C(=O)O | 3.3 |
| CC(C)C[C@H](N[C@@H](C)C(=O)N1C(=O)N(Cc2ccccc2)C[C@H]1C(=O)O)C(=O)O | 2.1 |
| CCCCCCCC[C@H](N[C@@H](C)C(=O)N1C(=O)N(Cc2ccccc2)C[C@H]1C(=O)O)C(=O)OCC | 2200 |
| CCCCCCCC[C@H](N[C@@H](CC)C(=O)N1C(=O)N(C)C[C@H]1C(=O)O)C(=O)O | 2.4 |
| C[C@H](N[C@@H](CCc1ccccc1)C(=O)O)C(=O)N1C(=O)NC[C@H]1C(=O)O | 3.5 |
| CCCCCCCC[C@H](N[C@@H](C)C(=O)N1C(=O)N(Cc2ccccc2)C[C@H]1C(=O)O)C(=O)O | 1.5 |
